# Reference: publication PMC12538274, “Paltusotine versus octreotide: different effects on radioligand uptake in neuroendocrine tumours” (Endocrine Oncology, 2025)
# Read-outs that look alike come from different tables or passages of the source.
# Legend:
# [1] = cited from earlier work
# [2] = target: T1, hSSTR2 (stable hSSTR2 over-expressing BON-1 cells, BON-1 SSTR2) (Homo sapiens, UniProt P30874); test: 18F-SiTATE uptake assay; format: cell-based
# T1 construct: expressed in transfected cells
# [3] = system: BON-1 cells (human panNET); test: Cell Titer Blue cell viability assay, BON-1; format: cell-based; conditions: 72 h, vs DMSO control
# Protocol: (§1) The BON-1 (human panNET; Prof. R Göke, University of Marburg, Germany), NCI-H727 (human bronchopulmonary NET; ATCC, USA) and QGP-1 cell lines (human panNET; JCRB Cell Bank, Japan) were cultured as previously described ([15]). Moreover, a stable hSSTR2 over-expressing BON-1 cell clone (BON-1 SSTR2) was generated as previously described ([16], [17]).
# (§2) GEP-NET cell lines and primary cultures were treated for 72 h with either paltusotine or octreotide, and dimethyl sulfoxide (DMSO) was used as control. Cell Titer Blue® cell viability assay (Promega, USA) was then performed as previously described ([15], [21]). Each experiment included 3–4 samples per drug concentration and patient. Cell line experiments were performed at least three times.
# [4] = system: BON-1 SSTR2 cells; test: Cell Titer Blue cell viability assay, BON-1 SSTR2; format: cell-based, human; conditions: 72 h, vs DMSO control
# [5] = system: NCI-H727 cells (human bronchopulmonary NET); test: Cell Titer Blue cell viability assay, NCI-H727; format: cell-based; conditions: 72 h, vs DMSO control
# Protocol: as §1, §2
# [6] = system: QGP-1 cells (human panNET); test: Cell Titer Blue cell viability assay, QGP-1; format: cell-based; conditions: 72 h, vs DMSO control
# Protocol: as §1, §2
# [7] = system: patient-derived GEP-NET primary cultures; test: Cell Titer Blue cell viability assay, patient-derived GEP-NET primary cultures; format: cell-based, human; conditions: 72 h, n = 5
# From the text: Fresh patient-derived GEP-NET primary cultures were established from surgically-derived patient tumours as previously described ([18]). […] Eleven of these were metastatic GEP-NETs, including six […] = 2 with the carcinoid syndrome) and eight […]. The use of primary tumour tissue as part of NeoExNET was approved by the Ethics Committee of LMU Munich (project number 152-10) and by the Cantonal Ethics Committee Zurich (reference number BASEC 2017-00950). […] GEP-NET cell lines and primary cultures were treated for 72 h with either paltusotine or octreotide, and dimethyl sulfoxide (DMSO) was used as control. Cell Titer Blue® cell viability assay (Promega, USA) was then performed as previously described ([15], [21]). […] Cell line experiments were performed at least three times.
# [8] = system: SSTR2; conditions: read-out: SSTR2 binding affinity, IC50; cited from earlier work
# [9] = system: forskolin-stimulated cAMP accumulation; set-up: method as in PMID 36810324; conditions: read-out: Inhibition of forskolin-stimulated cAMP accumulation, EC50; cited from earlier work
# [10] = system: SSTR2 on the cell surface of HEK293 cells; set-up: method as in PMID 36810324; conditions: cited from earlier work
# From the text: (§3) While G-protein (GP)- and arrestin (ARRB)-mediated effects are induced by full SSTR2 agonists such as octreotide ([35]), biased agonists with GP-mediated effects but diminished ARRB signalling have been reported ([35]). Arrestins play an important role in SSTR internalisation and recycling/degradation ([35]). Zhao et al. compared the molecular binding structure of octreotide and paltusotine to SSTR2 and their molecular signalling, examined β-arrestin recruitment and SSTR2 internalisation/loss of SSTR2 expression on the cell surface of HEK293 cells ([34]).
# [11] = system: β-arrestin recruitment (SSTR2, HEK293 cells); set-up: method as in PMID 36810324; conditions: cited from earlier work
# From the text: as §3
# [12] = system: pituitary tumour cells; set-up: method as in PMID 36810324; conditions: compared to octreotide; cited from earlier work
# [13] = cited from earlier work; remark: listed apart in the source
# From the text: Paltusotine is currently being investigated in a randomised phase 2 trial in NET patients with the carcinoid syndrome (NCT05361668), with promising preliminary results ([13]), and a phase 3 trial is currently being planned ([14]). […] Recently, paltusotine received FDA approval for the treatment of patients with acromegaly ([11], [12]).
# [14] = system: NET patients with the carcinoid syndrome; conditions: preliminary results, phase 2, NET patients with carcinoid syndrome; cited from earlier work
# From the text: A newly developed, orally-bioavailable non-peptide SSTR2 agonist, paltusotine, might simplify SSA therapy and is taken orally once daily ([10]). Paltusotine recently received FDA approval for acromegaly treatment based on data from two phase 3 trials ([…]-1 and […]-2/NCT05192382) ([11], [12]).
# [15] = system: SSTR1/3/4/5; set-up: method as in PMID 11980628; conditions: cited from earlier work
# From the text: However, according to current guidelines as well as the FDA/EMA labelling instructions regarding Lutathera®, SSA therapy needs to be discontinued before PRRT ([7], [8], [9]). These recommendations stem from the fact that both SSAs and PRRT target the SSTR2. […] Moreover, long-acting octreotide and prolonged-release lanreotide maintain platea ...
# T1 sequence (P30874 whole entry): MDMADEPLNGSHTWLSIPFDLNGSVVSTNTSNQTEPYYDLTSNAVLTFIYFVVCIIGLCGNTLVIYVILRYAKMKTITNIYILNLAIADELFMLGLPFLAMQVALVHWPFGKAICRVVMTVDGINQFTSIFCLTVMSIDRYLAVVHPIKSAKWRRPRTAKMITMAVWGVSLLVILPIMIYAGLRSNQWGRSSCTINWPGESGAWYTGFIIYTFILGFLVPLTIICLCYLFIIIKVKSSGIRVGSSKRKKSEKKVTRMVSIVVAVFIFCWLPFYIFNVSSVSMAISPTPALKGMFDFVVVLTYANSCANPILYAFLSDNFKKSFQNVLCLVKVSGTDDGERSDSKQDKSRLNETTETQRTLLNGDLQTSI
molecule,measurement,setting,value
C[C@@H](O)[C@@H]1NC(=O)[C@H](CCCCN)NC(=O)[C@@H](Cc2c[nH]c3ccccc23)NC(=O)[C@H](Cc2ccccc2)NC(=O)[C@@H](NC(=O)[C@H](N)Cc2ccccc2)CSSC[C@@H](C(=O)N[C@H](CO)[C@@H](C)O)NC1=O [octreotide],Plasma concentrations,"[1]; subcutaneous injections, humans",up to 4 nM
N#Cc1cccc(-c2ccc3ncc(-c4cc(F)cc(F)c4)c(N4CCC(N)CC4)c3c2)c1O [paltusotine],Effect on 18F-SiTATE radioligand uptake compared to the unblocked control,"[2]; 73–254 nM (1,000×) and 146–508 nM (2,000×)",no significant effects on cellular uptake
same,Effect on 18F-SiTATE radioligand uptake compared to the unblocked control,"[2]; low, clinically-relevant concentrations 7.3–25.4 nM (100×)",no influence on radioligand binding compared to the unblocked control
same,Effect on cell viability,"[3]; BON-1, 4 nM",overall no anti-tumour effects
same,Effect on cell viability,"[3]; BON-1, 400 nM","slight, significant increase in viability"
same,Effect on cell viability,"[4]; BON-1 SSTR2, 4 nM",overall no anti-tumour effects
same,Effect on cell viability,"[4]; BON-1 SSTR2, 400 nM",not found
same,Effect on cell viability,"[5]; NCI-H727, 4 nM",overall no anti-tumour effects
same,Effect on cell viability,"[5]; NCI-H727, 400 nM",not found
same,Effect on cell viability,"[6]; QGP-1, 4 nM",overall no anti-tumour effects
same,Effect on cell viability,"[6]; QGP-1, 400 nM","slight, significant decrease in cell viability"
same,Overall effect on cell viability,[7]; 100 nM,overall slight anti-tumour effects
same,Overall effect on cell viability,[7]; 500 nM,overall slight anti-tumour effects
same,IC50,[8],0.25 nM
same,EC50,[9],2.08 ± 1.39 nM
same,SSTR2 internalisation/desensitisation,[10],less SSTR2 internalisation/desensitisation
same,β-arrestin recruitment,[11],much lower β-arrestin recruitment
same,Apoptotic rate,[12],increased apoptotic rate compared to octreotide
same,Oral bioavailability,[13],good oral bioavailability
same,Symptom control,[14],improved symptom control
same,Tolerability,[14],good tolerability
same,Plasma concentrations,[1]; in vivo,22 to 406 nM
lanreotide,IC50,[8],0.54 nM
same,Binding affinity to SSTR1/3/4/5,[15],reduced or no binding affinity
somatostatin,IC50,[8],0.15 nM
